Assay results from patent EP1311531B1, “STEROID DERIVED ANTIBIOTICS” (Brigham Young University, priority 2000, dated 2002).
Values after ≈ are worked out from the molar mass of the structure shown. Where two headings read alike, the source gives them in different places.

Assays:
[1] = system: Candida albicans ATCC 90028; assay: MIC and MBC measurement; assay type: cell-based; conditions: ATCC90028, Table 10
Description: (§1) General: Microorganisms. Reference strains were purchased from the American Type Culture Collection (Rockville, MD) or Bactrol disks from Difeo Laboratories (Detroit, MI). […] Bacterial strains were maintained on Mueller-Hinton agar plates, and Candida albicans was maintained on Sabouraud Dextrose agar plates.
(§2) Aliquots (20 mL) of the homogeneous solution were then poured in sterile plastic petri dishes (100 x 15 mm, Fisher Scientific). Solutions of compounds were made by dissolving the HCl salt of the respective compound into an appropriate amount of deionized and sterilized water followed by microfiltration.
(§3) Aliquots of 1 mL of the suspension were added to test tubes containing 1 mL TSB and incrementally varied concentrations of cholic acid derivatives and/or erythromycin or novobiocin. […] Additionally, an alliquot from each of the samples showing no measurable turbidity was subcultured on TSA plates (alliquots were diluted to provide fewer than 300 CFU). Colonies that grew on the subculture after overnight incubation were counted and the number of CFU/mL in the samples were calculated. The calculated values were compared to the number of CFU/mL in the original inoculum.

[2] = system: Salmonella typhimurium ATCC 14028; assay: MIC and MBC measurement; assay type: cell-based; conditions: Salmonella enterica
Description: as §1, §2, §3

[3] = system: Escherichia coli ATCC 25922; assay: Sensitization to erythromycin, novobiocin or rifampicin (permeabilization, FIC)
[4] = system: Escherichia coli ATCC 25922; conditions: ATCC25922
[5] = system: Staphylococcus aureus ATCC 25923; assay: MIC and MBC measurement; assay type: cell-based; conditions: ATCC25923, Table 10, Staphylococcus aureus ATCC 25923; for MIC: read-out: MIC
Source text: (§4) General: Microorganisms. Reference strains were purchased from the American Type Culture Collection (Rockville, MD) or Bactrol disks from Difeo Laboratories (Detroit, MI). The following specific ATCC strains were used: 10798 Escherichia coli, 25922 Escherichia coli, 13883 Klebsiella pneumoniae, 27853 Pseudomonas aeruginosa, 14028 Salmonella typhimurium, 29212 Enterococcus faecalis, 25923 Staphylococcus aureus, 19615 Streptococcus pyogenes, and 90028 Candida albicans. Bacterial strains were maintained on Mueller-Hinton agar plates, and Candida albicans was maintained on Sabouraud Dextrose agar plates.
(§5) Tryptic soy broth (TSB) was made by dissolving 27.5 grams of tryptic soy broth without dextrose (DIFCO Laboratories) in 1 liter of deionized water and sterilizing at 121 °C for 15 minutes. Solid agar (TSA) plates were made by dissolving 6.4 grams of tryptic soy broth and 12 grams of agar (purified grade, Fischer Scientific) in 800 mL of deionized water and sterilizing at 121 °C for 20 minutes. Aliquots (20 mL) of the homogeneous solution were then poured in sterile plastic petri dishes (100 x 15 mm, Fisher Scientific). Solutions of compounds were made by dissolving the HCl salt of the respective compound into an appropriate amount of deionized and sterilized water followed by microfiltration.
(§6) Aliquots of 1 mL of the suspension were added to test tubes containing 1 mL TSB and incrementally varied concentrations of cholic acid derivatives and/or erythromycin or novobiocin. In the sensitization experiments, erythromycin or novobiocin were added 15 minutes later than the cholic acid derivatives. The samples were subjected to stationary incubation at 37°C for 24 hours. Sample turbidity was determined by measuring absorption at 760 nm (HP 8453 UV-Visible Chemstation, Hewlett Packard). Additionally, an alliquot from each of the samples showing no measurable turbidity was subcultured on TSA plates (alliquots were diluted to provide fewer than 300 CFU). Colonies that grew on the subculture after overnight incubation were counted and the number of CFU/mL in the samples were calculated. The calculated values were compared to the number of CFU/mL in the original inoculum. […]

[6] = system: Escherichia coli ATCC 25922; assay: MIC and MBC measurement; assay type: cell-based; conditions: Escherichia coli; for MIC: read-out: MIC
Source text: as §4, §5, §6

[7] = Minimum hemolytic concentration (MHC); assay type: cell-based; conditions: Table 10
Description: Minimum inhibition concentrations (MIC) and minimum hemolytic concentrations (MHC) were measured as described in Li et al., Antimicrob. Agents. Chemother., 1999, 43, 1347. […]

[8] = system: E. coli (ATCC 10798); assay: Sensitization to erythromycin or novobiocin (outer membrane permeabilization, FIC); assay type: cell-based, Escherichia coli; conditions: for MBC: Escherichia coli
Description: FICs can be performed by checkerboard titrations of compounds in one dimension of a microtiter plate, and of antibiotics in the other dimension, for example. The FIC is calculated by looking at the impact of one antibiotic on the MIC of the other and vice versa. […] Preferably, an FIC of less than 0.5 is obtained for synergism. As used herein, FIC can be determined as follows: FIC = (MIC(compound in combination))/(MIC(compound alone)) + (MIC(antibiotic in combination))/(MIC(antibiotic alone)) [formula]
Aliquots of 1 mL of the suspension were added to test tubes containing 1 mL TSB and incrementally varied concentrations of cholic acid derivatives and/or erythromycin or novobiocin. In the sensitization experiments, erythromycin or novobiocin were added 15 minutes later than the cholic acid derivatives. The samples were subjected to stationary incubation at 37°C for 24 hours. Sample turbidity was determined by measuring absorption at 760 nm (HP 8453 UV-Visible Chemstation, Hewlett Packard). Additionally, an alliquot from each of the samples showing no measurable turbidity was subcultured on TSA plates (alliquots were diluted to provide fewer than 300 CFU). Colonies that grew on the subculture after overnight incubation were counted and the number of CFU/mL in the samples were calculated. The calculated values were compared to the number of CFU/mL in the original inoculum.
They were also tested for the ability to permeabilize the outer membrane of Gram-negative bacteria, causing sensitization to hydrophobic antibiotics that cannot cross the outer membrane. The permeabilization of the outer membrane was measured using erythromycin and novobiocin.

[9] = system: Enterococcus faeculis ATCC 29212; assay: MIC and MBC measurement; assay type: cell-based, Enterococcus faecalis; conditions: ATCC29212
Description: as §1, §2, §3

[10] = system: E. coli (ATCC 10798); assay: MIC and MBC measurement; assay type: cell-based, Escherichia coli; conditions: ATCC10798; for MBC: read-out: MBC; for MIC: read-out: MIC
Description: as §1, §2, §3

[11] = system: Klebsiella pneumonia ATCC 13883; assay: Sensitization to erythromycin, novobiocin or rifampicin (permeabilization, FIC); assay type: cell-based, Klebsiella pneumoniae
[12] = Table 13, with rifampicin (order of b151), Escherichia coli ATCC 25922
[13] = ATCC25922, Table 10, Escherichia coli ATCC 25922
[14] = Table 9, Escherichia coli (ATCC 10798)
[15] = Table 13, with rifampicin (order of b151), Klebsiella pneumonia ATCC 13883
[16] = ATCC25922, Table 4, E. coli (ATCC 25922)
[17] = Escherichia coli, Table 1, E. coli (ATCC 10798)

SMILES	MBC [1] [µg/mL]	MIC [1] [µg/mL]	MBC [2] [µg/mL]	MIC [2] [µg/mL]	MBC [5] [µg/mL]	MIC [5] [µg/mL]	MBC [6, 13] [µg/mL]	MIC [6, 13] [µg/mL]	MHC [7] [µg/mL]	MBC [9] [µg/mL]	MIC [9] [µg/mL]	FIC ([11]; ATCC13883)	concentration required for bacterial growth inhibition ([11]; ATCC13883) [µg/mL]	also measured
C[C@]12CC[C@@H](OCCCN)C[C@H]1C[C@@H](OCCCN)[C@@H]1[C@@H]2C[C@H](OCCCN)[C@]2(C)[C@@H](O)CC[C@@H]12 [Compound 106]	92 (≈ 186 µM)	75 (≈ 151 µM)	> 100	> 100	54 (≈ 109 µM)	8.6 (≈ 17.3 µM)	90 (≈ 182 µM)	80 (≈ 161 µM)	>100	> 100	12 (≈ 24.2 µM)	0.66	3.6	FIC [3, 12]: 0.12; concentration required for bacterial growth inhibition [3, 12]: 4.2 µg/mL; concentration required for bacterial growth inhibition [4]: 4.7 µg/mL; (a) Concentration required to lower the MIC of erythromycin from 70 to 1 µg/mL [8, 14]: 30 µg/mL; (b) MBC with 1 µg/mL erythromycin [8, 14]: 160 µg/mL; (d) Concentration required to lower the MIC of novobiocin from >500 to 1 µg/mL [8, 14]: 50 µg/mL; FIC^c (FIC values with erythromycin) [8, 14]: 0.23; FIC^c (FIC values with novobiocin) [8, 14]: 0.36; MBC [10, 14]: > 200 µg/mL; MIC [10, 14]: 140 µg/mL (≈ 282 µM); concentration required for bacterial growth inhibition ([11]; Table 12, with novobiocin (order of b151), Klebsiella pneumonia ATCC 13883): 8.9 µg/mL; FIC [11, 15]: 0.044; concentration required for bacterial growth inhibition [11, 15]: 1.8 µg/mL
C[C@H](CCCN(C)Cc1ccccc1)[C@H]1CC[C@H]2[C@@H]3[C@H](OCCCNC(=N)N)C[C@@H]4C[C@H](OCCCNC(=N)N)CC[C@]4(C)[C@H]3C[C@H](OCCCNC(=N)N)[C@]12C [Compound 5]	50 (≈ 62.9 µM)	11 (≈ 13.8 µM)	3.8 (≈ 4.78 µM)	2.2 (≈ 2.77 µM)	3.2 (≈ 4.02 µM)	0.6 (≈ 0.755 µM)	3.8 (≈ 4.78 µM)	1.4 (≈ 1.76 µM)	26	16 (≈ 20.1 µM)	2.2 (≈ 2.77 µM)	0.080	0.15	MBC ([3]; Escherichia coli, ATCC25922): 1.5 µg/mL; concentration required to lower the MIC of erythromycin from 60 µg/mL to 1 µg/mL ([3]; Table 5, E. coli (ATCC 25922), with erythromycin): 1.5 µg/mL; FIC [4]: 0.31; MBC [6, 16]: 4 µg/mL (≈ 5.03 µM); MIC [6, 16]: 2 µg/mL (≈ 2.52 µM); MBC ([8]; ATCC10798, Table 2, E. coli (ATCC 10798), with erythromycin): 3 µg/mL; MBC ([8]; ATCC10798, Table 3, E. coli (ATCC 10798), with novobiocin): 4 µg/mL; concentration required to lower the MIC of erythromycin from 70 µg/mL to 1 µg/mL ([8]; Table 2, E. coli (ATCC 10798), with erythromycin): 1 µg/mL; MBC [10, 17]: 4 µg/mL (≈ 5.03 µM); MIC [10, 17]: 2 µg/mL (≈ 2.52 µM)
